Usually IC50 stands for the concentration that inhibits the measured activity by half.

“Also recorded” adds a separate entry of the source. Some results are limits rather than exact numbers.

The values below come from patent publication US20080293699A1, “Inhibitors of thapsigargin-induced cell death” (priority 2007, published 2008).

Assay [1] deals with phospho-p38 MAPK. Put plainly: Thapsigargin-induced p38 MAPK phosphorylation in CSM14.1 cells (immunoblotting and MSD assay). Type of assay: cell-based, rat. From the text:
After confirming the pathway selectivity of compounds, additional downstream assays can be performed to map the specific signal transduction pathway inhibited by the compounds. In this regard, various antibody reagents are commercially available for assessing the status of the three major pathways known to be activated by ER stress: (1) PERK, (2) Ire1, and (3) ATF6 (Xu et al., J. Clinical Invest., 115:2656-2664, 2005). Immunoblotting experiments can be performed to assess the expression or phosphorylation (using phospho-specific antibodies) of marker proteins in these pathways. […] Cell lysates were prepared and analyzed by SDS-PAGE/immunoblotting using antibodies specific for phospho-c-Jun, phospho-eIF2α, phospho-p38 MAPK, and tubulin (a loading control). […] After two hrs, cell lysates were prepared, normalized for protein content, and either analyzed by SDS-PAGE/immunoblotting using anti-p38-MAPK pan-reactive antibody or phospho-specific antibody with ECL-based detection, followed by densitometry analysis of x-ray films, normalizing phosphor-p38 MAPK relative to total p38 MAPK, or analyzed using a meso-scale instrument from MSD and a procedure in which total p38 MAPK is captured on plates, and the relative amounts of phosphorylated protein were determined using phospho-specific antibody (MSD catalog #K15112D1). […]
(Immunoblotting shows a protein as a band on a membrane.)

Assay [2] has as its system ATF4. Put plainly: Thapsigargin-induced expression of ATF4 (immunoblotting). Type of assay: cell-based, rat. To be noted: listed as CID-2878746.
Assay [3] relates to CSM14.1 cells. The assay can be described thus: Tunicamycin-induced cell death of CSM14.1 cells. Type of assay: cell-based, rat. As to the method: CSM 14.1 cells were plated at a density of 3×10^3 cells/well in 96-well plates and incubated overnight. Cells were pre-incubated with 25 μM of each compound or 100 μM salubrinal for two hours, followed by […] tunicamycin treatment. 72 hours later, cell death rates were measured by flow cytometry analysis. Annexin V-negative population was considered as survivors. In FIG. 13, the white column represents 0.5% DMSO control showing 24% of survival, and the gray column 100 μM salubrinal. Black columns are data from each compound (25 μM) (compound numbers refer to the compounds in Table 9).
For the experiments shown in FIG. 18, undifferentiated CSM 14.1 cells were plated at 3,000 cells per well in 96-well plates (for the ATP assay) or at 1×10^4 cells per well in 24-well plates (for flow cytometry). The next day, cells were treated with DMSO (0.5%) or hit compounds 25 μM of a compound with 0.5% DMSO final concentration) for two hours, followed by treatment with various cell death-inducing reagents, including 15 μM Thapsigargin (TG) for 24 hrs, 10 μg/mL tunicamycin (TU) for 72 hrs, 2.5 μM staurosporine (STS) for 24 hrs, 50 μM VP16 for 48 hrs, or 30 ng/mL TNF plus 10 μg/mL cyclohexamide (CHX) for 24 hrs. Cellular ATP content was measured for staurosporine samples and TNF/CHX samples, normalizing data relative to cells treated with DMSO alone (the control) and presenting as a percentage of control. For measuring cell death resulting from treatment with tunicamycin and VP16, flow cytometry was used. All assays were performed in triplicate (mean ±SD).

In assay [4] the test system is PPC1, human prostate cancer. The assay can be described thus: Thapsigargin-induced death of PPC1 cells, ATP content assay. Type of assay: cell-based. The protocol: (§1) In addition to CSM14.1 cells, when tested at 25 μM, Compound 5962123 protected by >50% against thapsigargin-induced death of several tumor cell lines (HeLa human cervical cancer, SW1 melanoma cell, PPC1, human prostate cancer), mouse neural stem cell C17.2 (both differentiated [neuronal phenotype] and non-differentiated [stem cell phenotype]) as determined by ATP content assay, and primary rat cortical neurons as determined by microscopy assay measuring the percentage of NeuN-immunopositive cells with either normal or apoptotic nuclear morphology (Hoechst dye staining).
(§2) For PC12, cells were stimulated with 20 ng/ml NGF for five days; for C17.2, cells were stimulated with serum reduction, and 1% N2 incubation for three days; for CSM14.1, cells were cultured at 39° C. for 5-7 days.

Assay [5] concerns HeLa human cervical cancer. Put plainly: Thapsigargin-induced death of HeLa cells, ATP content assay. Type of assay: cell-based. The protocol: as §1, §2
Where [6] appears, read: thapsigargin 15 μM, ATP content, compound ≦25 μM.

On to `CCN(CC)c1ccc(C2Nc3ccccc3NC3=C2C(=O)CC(c2ccccc2)C3)cc1` (stereo not drawn) [Compound 5962123, 6-(4-diethylaminophenyl)-9-phenyl-5,6,8,9,10,11-hexahydrobenzo[c][1,5]benzodiazepin-7-one], for which the “Thapsigargin-induced phosphorylation of p38MAPK” value in assay [1] (CSM14.1, immunoblotting and MSD assay, 10 μM, 25 μM hits) is “inhibits”. Moreover, the IC50 in assay [1] (quantitative ELISA-methods, thapsigargin-treated CSM14.1, estimated, read-out: IC50 for p38MAPK phosphorylation) was less than 5 µM; in assay [3] (undifferentiated CSM14.1, ATP content assay, read-out: IC50, inhibition of tunicamycin-induced cell death), 10 µM. Moreover, the “Thapsigargin-induced expression of ATF4” value in assay [2] was “not inhibited”. For the same compound, the “Inhibition of tunicamycin-induced cell death” value in assay [3] (CSM14.1 cells, annexin V flow cytometry where stated) is reported as “inhibits; also recorded: confirmed”. In addition, the “Cytoprotective activity, stimulus Tunicamycin (Result)” value in assay [3] (readout Annexin, CSM 14.1, compound ≦25 μM) is recorded as “+ (+indicates ≧50% rescue of cell viability relative to untreated cells not exposed to thapsigargin at compound concentration of ≦25 μM)”. The “Protection against thapsigargin-induced death, PPC1” value in assay [4] (25 μM, ATP content assay) is given as more than 50%. In assay [4] (ATP content assay), the “Cytoprotective activity in thapsigargin-treated PPC-1” value is reported as “demonstrated”. Besides, the “Cytoprotective activity, PPC1 (Result)” value in assay [4] (setting [6]) was “+ (+indicates >50% rescue of cell viability relative to untreated cells not exposed to thapsigargin at compound concentration of ≦25 μM)”. In assay [5] (25 μM, ATP content assay), the “Protection against thapsigargin-induced death, HeLa” value is more than 50%. For the same compound, in assay [5] (ATP content assay), the “Cytoprotective activity in thapsigargin-treated HeLa” value is listed as “demonstrated”. The “Cytoprotective activity, HeLa (Result)” value in assay [5] (setting [6]) is “+ (+indicates >50% rescue of cell viability relative to untreated cells not exposed to thapsigargin at compound concentration of ≦25 μM)”.
